Test results from paper PMC7730205, “Different Sensitivity of Control and MICU1- and MICU2-Ablated Trypanosoma cruzi Mitochondrial Calcium Uniporter Complex to Ruthenium-Based Inhibitors” (International Journal of Molecular Sciences, 2020).

How the values were obtained:
T. cruzi epimastigotes = test: Cellular respiration of epimastigotes (high-resolution respirometry); format: cell-based, Trypanosoma cruzi
Description: Figure 4 Effect of Ru265 on Trypanosoma cruzi. (a) Effect of Ru265 on epimastigote growth. Growth of control epimastigotes in LIT medium in the presence of 1 μM, 5 μM, and 10 μM Ru265. (b) Effect of Ru265 on trypomastigote attachment. Trypomastigotes were pretreated for 30 min with 1 μM antimycin A (AA) or 10 μM Ru265 and added to glutaraldehyde-fixed Vero cells. After 1 h of incubation at 37 °C, the cells were washed, and the number of attached trypomastigotes was counted. […] (c) Effect of Ru265 on trypomastigotes infection. Trypomastigotes were pretreated for 30 min with 1 μM antimycin A or 10 μM Ru265 and added to Vero cells. After 4 h of incubation at 37 °C, the cells were washed, and the number of intracellular parasites was counted. […] (f) Routine respiration (initial oxygen flux values), leak respiration after the addition of 0.5 µg/mL of oligomycin A, and electron transfer system (ETS) capacity after the sequential additions of FCCP (0.2 μM each) were measured for each condition. […] (g) Representative experiment showing mitochondrial Ca^2+ uptake by intact epimastigotes in relative fluorescence units (RFU). […] (h) Changes in fluorescence (before and after ionomycin addition) from three experiments like that shown in panel (g). […]

[1] = test system: T. cruzi epimastigotes (control, TcMICU1-KO, TcMICU2-KO); test: Mitochondrial membrane potential of digitonin-permeabilized epimastigotes (safranine O); format: cell-based, Trypanosoma cruzi; conditions: TcMICU1-KO or TcMICU2-KO cells, succinate
Source text: To determine whether the defect in mitochondrial Ca^2+ uptake in the presence of inhibitors was not secondary to mitochondrial membrane depolarization, we measured the mitochondrial membrane potential (Δψm) of digitonin-permeabilized epimastigotes using safranine O in the presence of succinate as mitochondrial substrate.
Figure 3 Effect of inhibitors on the mitochondrial membrane potential of epimastigotes. Changes in mitochondrial membrane potential (Δψm) of digitonin-permeabilized epimastigotes as detected by changes in safranine O fluorescence in control (a), TcMICU1-KO (b), and TcMICU2-KO (c) epimastigotes in the absence or presence of inhibitors. Cells (5 × 10^7) were added to the reaction buffer (2 mL) containing 0.2% BSA, 5 mM succinate, 50 μM EGTA and 5 μM safranine O. The reaction was started with 50 μM digitonin (DIG) in the presence or absence of the inhibitor, and 250 μM ADP, 1.5 μM carboxyatractyloside (CAT), 50 μM CaCl2 (Ca^2+), 200 μM EGTA, and 4 μM FCCP were added when indicated. A decrease in fluorescence after permeabilization with digitonin indicated the accumulation of the dye in energized mitochondria. The addition of ADP produced a small dissipation of membrane potential, indicating ADP phosphorylation. Δψm returned to its initial level after the addition of the adenine nucleotide translocator inhibitor CAT. The addition of FCCP collapsed the membrane potential. (d) Changes in safranine O fluorescence after digitonin addition (between 30 and 60 s) in control (C), TcMICU1-KO and TcMICU2-KO epimastigotes. […] Changes in safranine O fluorescence in control (C) (e), TcMICU1-KO (1-KO) (f), and TcMICU2-KO (2-KO) (g) epimastigotes after addition of ADP from three experiments like that shown in panels (a–c).
Estimation of mitochondrial membrane potential in situ was done spectrofluorometrically using the indicator dye safranine O, as described previously. […] Fluorescence changes were monitored using the Hitachi F-7000 spectrofluorometer (excitation of 495 nm and emission of 586 nm).

## N.N.N.N.N.N.N.N.[Cl][Ru+3].[N-]=[Ru][Cl] [Ru265]
T. cruzi epimastigotes; 10 µM Ru265, n = 3
  Uncoupled respiratory control rate (state 3u / rate with oligomycin): 1.70 ± 0.04
T. cruzi epimastigotes; control epimastigotes, 10 µM Ru265, compared with parasites without inhibitor
  Effect on O2 consumption level: did not affect O2 consumption level
[1]
  Effect on mitochondrial membrane potential (Δψm) and response to ADP: did not significantly affect
